Reference: patent US12318372B2, “Formulations with enhanced SN-38 solubility and oral absorption” (TaiRx Inc., priority 2021, dated 2025)
Where “and” joins values, the source holds several entries; their conditions need not be identical. Equal values may be shown once. Entries after “also recorded” stand apart in the source; their conditions may differ. Where a name gives a salt, the structure may show the parent alone. Read-outs that look alike come from different tables or passages of the source.

Tests used:
[1] = guinea pig; cited from earlier work
[2] = cited from earlier work
[3] = cited from earlier work; remark: listed apart in the source
[4] = rabbit; cited from earlier work
[5] = test system: HCT-116 colon cancer cells; assay: Study #1 orthotopic HCT-116 xenograft efficacy; type: in vivo, mouse
[6] = cited from earlier work; remark: listed apart in the source
[7] = test system: HCT-116 colon cancer cells; assay: Study #2 follow up orthotopic HCT-116 xenograft efficacy; type: in vivo, female BALB/c nude mice; settings: 25.9 mg/kg i.v. BIW x 6 doses
[8] = test system: HCT-116 colon cancer cells; type: in vivo; settings: 25.9 mg/kg i.v. Q4D x 3 wks
[9] = Visual SN-38 solubilization in PLGA/NMP mixtures; type: physicochemical; settings: PLGA (75:25):NMP mixture at mass ratio 1:2
Experimental: SN-38 solubilization in these two PLGA/NMP solution mixtures is then tested with a SN-38 starting concentration of 20 mg/g and then decreasing the tested concentration if needed. Table 13 presents the results of macroscopic observation of tentative SN-38 solubilization in PLGA/NMP mixtures

[10] = times more cytotoxic than CPT-11; cited from earlier work
[11] = SN-38 solubility at saturation in excipients and excipient mixtures (HPLC); type: physicochemical
Experimental: The saturation is obtained by adding gradually an excess of active ingredient (maximum target being 50 mg/mL) to a given volume of test medium. […]
The supernatant is then isolated, diluted in a solvent mixture allowing its injection into the chromatographic system. The concentration in solution for each medium is determined by HPLC (external standardization).

[12] = SN-38 content of NMP/VitE TPGS/polymer gels (HPLC); type: physicochemical
Experimental: For HPC, both above tested percentages (2 and 5%) will be further tested with SN-38. […] This starting solution is prepared by over stirred 24 hours at 20° C. and then filtered before being used for into polymer solubilization.
The three polymers of interest (HPMC E4M, HPMC E10M, and HPC Klucel) are weighed (according to the above selected percentages) and added for solubilization and under stirring onto the SN-38 solution in NMP/VitE TPGS 50/20 mixture. After 24 h stirring at 20° C., the 3 samples are visually observed, and their SN-38 content is assessed by HPLC (after dilution in an appropriate solvent).

CCc1c2c(nc3ccc(OC(=O)N4CCC(N5CCCCC5)CC4)cc13)-c1cc3c(c(=O)n1C2)COC(=O)[C@]3(O)CC [CPT-11, irinotecan]
antigenic potential [1]: has shown antigenic potential
aqueous solubility ([2]; HCl salt, in water): 25 mM
dogs showing emesis ([3]; 20 mg/kg i.v.): five of six
mortality ([3]; dogs, 40 mg/kg): the two dogs died 3 and 6 minutes later
time to emesis ([3]; dogs, 40 mg/kg): 1 min
antigenic potential [4]: has shown antigenic potential
Tumor weights on Day 34 Geometric mean ([5]; 50 mg/kg i.p. Q4D x 3 wks): 24.9 mg
Tumor weights on Day 34 TGI % ([5]; 50 mg/kg i.p. Q4D x 3 wks): 85%
irinotecan remained unhydrolyzed ([6]; humans, at the end of a 24-hour infusion): 33-66%
bioconversion to SN-38 ([6]; in humans): ~5%

CCc1c2c(nc3ccc(OC(=O)N4CCC(N5CCCCC5)CC4)cc13)-c1cc3c(c(=O)n1C2)COC(=O)[C@]3(O)CC [Irinotecan HCL trihydrate, Irinotecan HCL Trihydrate]
Tumor weights on Day 32 Geometric mean [7]: 134.0 mg
Tumor weights on Day 32 TGI % [7]: 84%
Tumor weights on Day 34 Geometric mean ([5]; 20.8 mg/kg i.v. BIW x 3 wks): 171.0 mg
Tumor weights on Day 34 TGI % ([5]; 20.8 mg/kg i.v. BIW x 3 wks): 78%
Tumor weights on Day 34 Geometric mean [8]: 428.6 mg
Tumor weights on Day 34 TGI % [8]: 60%

CCc1c2c(nc3ccc(O)cc13)-c1cc3c(c(=O)n1C2)COC(=O)[C@]3(O)CC [SN-38, 7-Ethyl-10-hydroxy-camptothecin]
Concentration at which SN-38 is soluble [9]: 10 mg/g
cytotoxicity relative to CPT-11 [10]: 200-2000 times
antigenic potential [1]: no antigenic potential
solubility in water ([2]; Zhang et al. 2004): < 40 µg/mL
solubility (S) ([2]; background statement b6): < 10 µg/mL
emesis or nausea ([3]; dogs, 11.6 mg/kg i.v.): no emesis or nausea was noted
SN-38 solubility ([11]; in Cremophor EL at 30% in water, 20° C.): 0.017 mg/g
SN-38 solubility ([11]; in Labrafil M1944CS, 20° C.): 0.054 mg/g
SN-38 solubility ([11]; in NMP/VitE TPGS (50/20 w/w), 20° C.): 18.51 mg/g
SN-38 solubility ([11]; in NMP/VitE TPGS/Capmul MCM/Tween 20 (50/20/10/20 w/w)): 7.57 mg/g
SN-38 solubility ([11]; in NMP/VitE TPGS/GELUCIRE (50/20/20), 20° C.): 9.2 mg/g and 9.25 mg/g
SN-38 solubility ([11]; in NMP/VitE TPGS/Isopropyl myristate/Solutol HS15 (50/20/10/20 w/w)): 9.04 mg/g
SN-38 solubility ([11]; in NMP/VitE TPGS/KOLLIDON VA64 (50/20/20), 20° C.): 15.6 mg/g and 15.65 mg/g
SN-38 solubility ([11]; in NMP/VitE TPGS/LUTROL F127 (50/20/20), 25° C.): 10.0 mg/g and 10.02 mg/g
SN-38 solubility ([11]; in NMP/VitE TPGS/Labrafac Lipophile WL1349/Lauroglycol 90 (50/20/10/20 w/w)): 2.76 mg/g
SN-38 solubility ([11]; in NMP/VitE TPGS/Mygliol 812/Propylene glycol (50/20/10/20 w/w)): 5.95 mg/g
SN-38 solubility ([11]; in NMP, 24 h stirring at 20° C.): 42 mg/g
SN-38 solubility ([11]; in Propylene glycol, 20° C.): 1.15 mg/g
SN-38 solubility ([11]; in VitE TPGS at 20% in water, 20° C.): ≈0.01 mg/g
SN-38 solubility ([11]; in all other tested media (other than NMP, propylene glycol, Capmul MCM)): lower than 0.054 mg/g
SN-38 content calculated by HPLC ([12]; 2% HPC (vs NMP) in NMP/VitE TPGS (50 w/20 w)): 14.32 mg/g
SN-38 content calculated by HPLC ([12]; 4% HPMC E4M (vs NMP) in NMP/VitE TPGS (50 w/20 w)): 14.03 mg/g
SN-38 content calculated by HPLC ([12]; 4% HPMC E10M (vs NMP) in NMP/VitE TPGS (50 w/20 w)): 14.00 mg/g
SN-38 content calculated by HPLC ([12]; 5% HPC (vs NMP) in NMP/VitE TPGS (50 w/20 w), 24 h stirring at 20° C.): 13.95 mg/g
SN-38 precipitation on addition of gelling polymers ([12]; HPMC E4M, HPMC E10M or HPC added onto 15 mg/g SN-38 solution in NMP/VitE TPGS 50/20): No SN-38 precipitation is observed; also recorded: without precipitation of SN-38
SN-38 content calculated by HPLC ([12]; No polymer in NMP/VitE TPGS (50 w/20 w), filtered 15 mg/g starting solution): 14.47 mg/g
